According to ChEMBL document CHEMBL1201862, “PubChem BioAssay data set” (2004):
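96-well plates; 48 h exposure; 5 concentrations. Endpoints by linear interpolation between flanking doses. Not reached: highest tested concentration assigned. Abbreviation: GI50, concentration required for 50% inhibition of growth.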 Calls of active or inactive are those of the source. No stated cut-off is given here; in the data, active = GI50 up to about 1.1 µM and inactive = higher.

Legend:
Experiment in all cases: growth of human tumour cells (NCI), 48 h
IGROV-1 = tested on: IGROV-1
M14 = tested on: M14
SK-MEL-5 = tested on: SK-MEL-5
SNB-78 = tested on: SNB-78
HL-60 = tested on: HL-60
RPMI-8226 = tested on: RPMI-8226
SF-539 = tested on: SF-539
ACHN = tested on: ACHN
NCI-H23 = tested on: NCI-H23
HT-29 = tested on: HT-29
U-251 = tested on: U-251
NCI-H522 = tested on: NCI-H522
M19-MEL = tested on: M19-MEL
DMS-114 = tested on: DMS-114
XF498 = tested on: XF498
UACC-62 = tested on: UACC-62
UO-31 = tested on: UO-31
EKVX = tested on: EKVX
SF-295 = tested on: SF-295
LXFL 529 = tested on: LXFL 529
SF-268 = tested on: SF-268
SK-MEL-2 = tested on: SK-MEL-2
HCC 2998 = tested on: HCC 2998
NCI-H460 = tested on: NCI-H460
HCT-15 = tested on: HCT-15
HOP-18 = tested on: HOP-18
SN12C = tested on: SN12C
OVCAR-5 = tested on: OVCAR-5
SW-620 = tested on: SW-620
K562 = tested on: K562
COLO 205 = tested on: COLO 205
786-0 = tested on: 786-0
SK-MEL-28 = tested on: SK-MEL-28
OVCAR-8 = tested on: OVCAR-8
KM12 = tested on: KM12
LOX IMVI = tested on: LOX IMVI
NCI-H226 = tested on: NCI-H226
KM-20L2 = tested on: KM-20L2
HOP-62 = tested on: HOP-62
DMS-273 = tested on: DMS-273
MOLT-4 = tested on: MOLT-4
CCRF-CEM = tested on: CCRF-CEM
TK-10 = tested on: TK-10
RXF 631 = tested on: RXF 631
SK-OV-3 = tested on: SK-OV-3
Malme-3M = tested on: Malme-3M
SNB-75 = tested on: SNB-75
SNB-19 = tested on: SNB-19
SR = tested on: SR
OVCAR-3 = tested on: OVCAR-3
HOP-92 = tested on: HOP-92
UACC-257 = tested on: UACC-257
HCT-116 = tested on: HCT-116
DLD-1 = tested on: DLD-1
OVCAR-4 = tested on: OVCAR-4
A549 = tested on: A549
A498 = tested on: A498
CAKI-1 = tested on: CAKI-1
RXF 393 = tested on: RXF 393

Measured: GI50

OCc1c(-c2cccc3ccccc23)sc(-c2cccc3ccccc23)c1CO
inactive: IGROV-1 14.1 µM | M14 14.5 µM | SK-MEL-5 11.3 µM | SNB-78 16.2 µM | HL-60 15.5 µM | RPMI-8226 6.9 µM | SF-539 15.3 µM | ACHN 12.3 µM | NCI-H23 14.5 µM | HT-29 15.3 µM | U-251 12.2 µM | NCI-H522 10.5 µM | M19-MEL 15.5 µM | DMS-114 9.1 µM | XF498 6.89 µM | UACC-62 11.3 µM | UO-31 11.1 µM | EKVX 11.3 µM | SF-295 14.1 µM | LXFL 529 14 µM | SF-268 13.2 µM | SK-MEL-2 14.6 µM | HCC 2998 18.1 µM | NCI-H460 14.3 µM | HOP-18 13.5 µM | SN12C 13.5 µM | OVCAR-5 17 µM | SW-620 15.6 µM | K562 6.5 µM | COLO 205 11.6 µM | 786-0 14 µM | SK-MEL-28 10.4 µM | OVCAR-8 13 µM | KM12 12.4 µM | LOX IMVI 14.6 µM | NCI-H226 16.7 µM | KM-20L2 11.7 µM | HOP-62 13 µM | DMS-273 15.2 µM | MOLT-4 9.04 µM | CCRF-CEM 6.41 µM | TK-10 13.1 µM | RXF 631 18.2 µM | SK-OV-3 15.2 µM | Malme-3M 12.2 µM | SNB-75 14.3 µM | SNB-19 12.5 µM | SR 13.5 µM | OVCAR-3 13.4 µM | HOP-92 15.1 µM | UACC-257 12.8 µM
14.7 µM: HCT-15

CC(C)OC(=O)C1=C(O)c2ccccc2S(=O)(=O)N1
inactive: IGROV-1 > 100 µM | M14 > 100 µM | SK-MEL-5 > 100 µM | SNB-78 > 100 µM | SF-539 > 100 µM | ACHN > 100 µM | NCI-H23 > 100 µM | HT-29 > 100 µM | U-251 > 100 µM | NCI-H522 > 100 µM | M19-MEL > 100 µM | HCT-116 > 100 µM | XF498 > 100 µM | UACC-62 > 100 µM | EKVX > 100 µM | SF-295 > 100 µM | LXFL 529 > 100 µM | SF-268 > 100 µM | SK-MEL-2 > 100 µM | HCC 2998 > 100 µM | NCI-H460 > 100 µM | HOP-18 > 100 µM | DLD-1 > 100 µM | SN12C > 100 µM | OVCAR-5 > 100 µM | SW-620 > 100 µM | K562 > 100 µM | COLO 205 > 100 µM | 786-0 > 100 µM | SK-MEL-28 > 100 µM | OVCAR-8 > 100 µM | KM12 > 100 µM | LOX IMVI > 100 µM | NCI-H226 > 100 µM | OVCAR-4 > 100 µM | KM-20L2 > 100 µM | HOP-62 > 100 µM | DMS-273 > 100 µM | A549 > 100 µM | MOLT-4 > 100 µM | CCRF-CEM > 100 µM | TK-10 > 100 µM | RXF 631 > 100 µM | A498 > 100 µM | SK-OV-3 > 100 µM | Malme-3M > 100 µM | SNB-75 > 100 µM | SNB-19 > 100 µM | OVCAR-3 > 100 µM | CAKI-1 > 100 µM | UACC-257 > 100 µM
> 100 µM: HCT-15

O=[N+]([O-])c1ccc(Sc2c3ccccc3nc3cc(Cl)ccc23)cc1
> 10 µM: HCT-15
inactive: IGROV-1 > 10 µM | M14 > 10 µM | SK-MEL-5 > 10 µM | SNB-78 > 10 µM | HL-60 40.9 µM | RPMI-8226 > 100 µM | SF-539 > 10 µM | ACHN > 10 µM | HT-29 > 100 µM | U-251 > 10 µM | NCI-H522 > 10 µM | M19-MEL > 10 µM | HCT-116 > 10 µM | RXF 393 37.5 µM | DMS-114 > 10 µM | XF498 32.7 µM | UACC-62 > 10 µM | UO-31 > 10 µM | EKVX > 10 µM | SF-295 > 10 µM | LXFL 529 > 10 µM | SF-268 > 10 µM | SK-MEL-2 > 10 µM | HCC 2998 > 10 µM | NCI-H460 > 10 µM | HOP-18 > 10 µM | DLD-1 > 10 µM | SN12C > 10 µM | OVCAR-5 > 10 µM | SW-620 > 10 µM | K562 > 10 µM | COLO 205 > 10 µM | 786-0 > 10 µM | SK-MEL-28 > 10 µM | OVCAR-8 > 10 µM | KM12 > 10 µM | LOX IMVI > 10 µM | NCI-H226 > 10 µM | OVCAR-4 > 10 µM | KM-20L2 > 10 µM | HOP-62 > 10 µM | MOLT-4 34.4 µM | CCRF-CEM 32.9 µM | TK-10 > 10 µM | RXF 631 > 10 µM | A498 > 10 µM | SK-OV-3 > 10 µM | Malme-3M > 10 µM | SNB-75 27.9 µM | SNB-19 > 10 µM | SR 25.7 µM | OVCAR-3 > 10 µM | HOP-92 65.2 µM | CAKI-1 > 10 µM | UACC-257 > 10 µM
